Results on one compound are retold here after BindingDB's records for doi:10.1021/jm801475n (University of Dundee, 2009).

The experiment concerns the target T1, 2-C-methyl-D-erythritol 2,4-cyclodiphosphate synthase (Escherichia coli (strain K12), UniProt P62617).
T1 sequence (P62617 whole entry): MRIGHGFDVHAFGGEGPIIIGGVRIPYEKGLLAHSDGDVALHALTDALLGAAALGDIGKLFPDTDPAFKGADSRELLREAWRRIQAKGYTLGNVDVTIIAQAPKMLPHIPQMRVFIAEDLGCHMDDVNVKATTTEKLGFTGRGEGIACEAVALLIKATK
Kind of experiment: SPR Biosensor Assay. Conditions: pH 7; 10 °C. As to the method:
An SPR assay was used to determine the binding affinities of compounds. Experiments were performed on a Biacore 3000 (Biacore, Uppsala, Sweden) instrument with CM5 research grade chips (Biacore, Uppsala, Sweden). Sensorgrams were recorded at a frequency of 2.5 Hz. EcIspF was immobilized using amine-coupling chemistry with readings between 4500 and 5500 response units were obtained. After immobilization, a 6 min injection at 5 uL min-1 of 1 M ethanolamine was used to quench excess active succinamide ester groups. SPR binding experiments with EcIspF were performed at 10 deg C in 50 mM sodium phosphate pH 7 and 2 mM MgCl2 at a flow rate of 30 uL min-1. The sensor surface was regenerated between experiments by applying the running buffer for 20 min to dissociate any ligand complex. This was followed by a further 20 min stabilization period. The 40 min total regeneration time between experiments helped to eliminate any carry-over of EcIspF bound to ligand. Each injection at a given concentration was repeated three times. Blank injections were included for each measurement series and subtracted from the data. The equilibrium (steady state) binding curves were analyzed by nonlinear regression and fit to a one-to-one Langmuir binding model. All ligands assessed by SPR were greater than 95% purity as established by high-performance liquid chromatography or combustion analysis.

Consider `N[C@@H](Cc1c[nH]c2ccccc12)C(=O)NO` [Tryptophanhydroxamate, 13], for which the Kd (in general, a measure of binding affinity in units of concentration) is 1920 nM.
